This assay relates to GTPase KRas (Homo sapiens), P01116 [G12D]. Briefly: Protac activity at VHL/KRAS G12D in human ASPC1 cells assessed as induction of KRAS G12D protein degradation at 1 uM incubated for 24 hrs by luminescence based analysis relative to control. It is filed as cell-based.
Sequence of GTPase KRas (Homo sapiens), P01116 [G12D] (P01116 whole entry G12D, looked up): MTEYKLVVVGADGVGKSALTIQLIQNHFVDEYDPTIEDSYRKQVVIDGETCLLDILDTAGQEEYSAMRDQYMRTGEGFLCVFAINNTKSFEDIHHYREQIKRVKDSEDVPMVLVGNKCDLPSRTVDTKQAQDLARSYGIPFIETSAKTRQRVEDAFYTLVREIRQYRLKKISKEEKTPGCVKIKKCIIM
For `Cc1cc(N)nc(-c2c(Cl)cc3c(N4CC5CCC(C4)N5)nc(OC[C@@H]4CCCN4CCCOCCC(=O)N[C@H](C(=O)N4C[C@H](O)C[C@H]4C(=O)NCc4ccc(-c5scnc5C)cc4)C(C)(C)C)nc3c2F)c1C(F)(F)F`, the Activity is -0.69%.

As to `Cc1ncsc1-c1ccc([C@H](C)NC(=O)[C@@H]2C[C@@H](O)CN2C(=O)[C@@H](NC(=O)CCCCN2CCC[C@H]2COc2nc(N3CC4CCC(C3)N4)c3cc(Cl)c(-c4ccc(F)c5sc(N)nc45)c(F)c3n2)C(C)(C)C)cc1`, the Activity is 38.1%.

Turning to `Cc1cc(N)nc(-c2c(Cl)cc3c(N4CC5CCC(C4)N5)nc(OC[C@@H]4CCCN4CCCOCCCOc4cc(-c5scnc5C)ccc4CNC(=O)[C@@H]4C[C@@H](O)CN4C(=O)[C@H](NC(=O)C4(F)CC4)C(C)(C)C)nc3c2F)c1C(F)(F)F`, the Activity is -5.46%.

For `Cc1cc(N)nc(-c2c(Cl)cc3c(N4CC5CCC(C4)N5)nc(OC[C@@H]4CCCN4CCCCCCCN4CCC(c5cc(F)cc6c5CN(C5CCC(=O)NC5=O)C6=O)CC4)nc3c2F)c1C(F)(F)F` (stereo partly specified), the Activity is -22.9%.

Turning to `Cc1ncsc1-c1ccc([C@H](C)NC(=O)[C@@H]2C[C@@H](O)CN2C(=O)[C@@H](NC(=O)CCOCCCN2CCC[C@H]2COc2nc(N3CC4CCC(C3)N4)c3cc(Cl)c(-c4ccc(F)c5sc(N)nc45)c(F)c3n2)C(C)(C)C)cc1`, the Activity stood at 51.3%.

Turning to `Cc1cc(N)nc(-c2c(Cl)cc3c(N4CC5CCC(C4)N5)nc(OC[C@@H]4CCCN4CCCOCCC(=O)N[C@H](C(=O)N4C[C@H](O)C[C@H]4C(=O)N[C@@H](C)c4ccc(-c5scnc5C)cc4)C(C)(C)C)nc3c2F)c1C(F)(F)F`, the Activity was found to be 29.3%.

Values taken from ChEMBL document CHEMBL5257142, “Targeted Degradation of KRASG12D as Potential Therapy in Cancer” (ACS Med Chem Lett, 2023).
